According to patent US7842823B2, “Fluorogenic probes for reactive oxygen species” (The Regents of the University of California, priority 2005, dated 2010):

Key:
[1] = Fluorescence response to various ROS (H2O2 selectivity); conditions: 20 mM HEPES, pH 7, 25° C.; for higher response for H2O2 over .OH: .OH from Fe2+ with H2O2; for higher response for H2O2 over .OtBu: .OtBu from Fe2+ with TBHP; for higher response for H2O2 over NO: NO delivered using SNOC
Experimental: (§1) FIG. 7 is the fluorescence response of 5 μM PF1 to various ROS (10 mM O2^−, 100 μM for all other ROS). .OH and .Ot-Bu were generated by reaction of Fe^2+ with H2O2 or tert-butyl hydroperoxide (TBHP), respectively. NO was delivered using S-nitrosocysteine (SNOC). Spectra were acquired in 20 mM HEPES, pH 7, and all data were obtained after incubation with the appropriate ROS at 25° C. for 1 h. Collected emission was integrated between 460 and 700 nm (λexc=450 nm).
FIG. 8 is the fluorescence response of 5 μM PR1 to various ROS (10 mM O2^−, 100 μM for all other ROS). .OH and .O^tBu were generated by reaction of Fe^2+ with H2O2 or tert-butyl hydroperoxide (TBHP), respectively. NO was delivered using S-nitrosocysteine (SNOC). Spectra were acquired in 20 mM HEPES, pH 7, and all data were obtained after incubation with the appropriate ROS at 25° C. for 30 min. Collected emission was integrated between 570 and 800 nm (λexc=560 nm).
as §1, with “FIG. 9” for “FIG. 7”, “of 10” for “of 5”, “μM PX1” for “μM PF1”, “between 370” for “between 460”, “and 600” for “and 700”, “nm (λexc=350” for “nm (λexc=450”
(§2) Millipore water was used to prepare all aqueous solutions. All spectroscopic measurements were performed in 20 mM HEPES buffer, pH 7. Absorption spectra were recorded using a Varian Cary 50 spectrophotometer (Walnut Creek, Calif.). Fluorescence spectra were recorded using a Photon Technology International Quanta Master 4 L-format scanning spectrofluorometer (Lawrenceville, N.J.) equipped with an LPS-220B 75-W xenon lamp and power supply, A-1010B lamp housing with integrated igniter, switchable 814 photon-counting/analog photomultiplier detection unit, and MD5020 motor driver. Samples for absorption and fluorescence measurements were contained in 1-cm×1-cm quartz cuvettes (1.4- or 3.5-mL volume, Starna, Atascadero, Calif.).
FIG. 7, FIG. 8 and FIG. 9 compare the relative reactivities of boronate-based PF1, PR1, and PX1, respectively, toward various ROS.

[2] = test system: HEK cells; assay: Confocal fluorescence imaging of H2O2 in live HEK cells; conditions: for cell viability during imaging: HEK cells after probe incubation and H2O2 treatment; for intracellular background fluorescence of the unreacted probe: live HEK cells, 5-10 μM probe, 5-10 min at 25° C., before H2O2; for intracellular fluorescence change upon addition of H2O2: probe-loaded live HEK cells, 10-100 μM H2O2
Experimental: (a) Fluorescence image of HEK cells incubated with 5 μM PF1 for 5 min at 25° C. (b) Fluorescence image of PF1-stained HEK cells treated with 100 μM H2O2 for 11 min at 25° C. Excitation was provided at 488 nm, and emission was collected in a window from 505 to 580 nm. Scale bar=27 μm.
(a) Fluorescence image of HEK cells incubated with 10 μM PR1 for 10 min at 25° C. (b) Fluorescence image of PR1-stained HEK cells treated with 100 μM H2O2 for 30 min at 25° C. Excitation was provided at 543 nm, and emission was collected in a window from 548 to 644 nm. Scale bar=18 μm.
HEK 293T cells were cultured in Dulbecco's Modified Eagle Medium (DMEM, Invitrogen, Carlsbad, Calif.) supplemented with 10% Fetal Bovine Serum (FBS, Invitrogen), glutamine (2 mM), and penicillin/streptomycin (50 μg/ml, Invitrogen). One day before imaging, cells were passed and plated on 18-mm glass coverslips coated with poly-L-lysine (50 μg/ml, Sigma, St. Louis, Mo.). Immediately before the experiments, cells were washed with PBS buffer, incubated with the probe in PBS, and imaged.
Confocal fluorescence imaging was performed with a Zeiss LSM510 META laser scanning microscope containing an Axioplan 2 MOT upright microscope and a 40× water-immersion objective lens. Excitation of PF1-loaded cells at 488 nm was carried out with an argon ion laser, and emission was collected in a window from 505 nm to 580 nm using a META detection system. Excitation of PR1-loaded cells at 543 nm was carried out with a HeNe laser, and emission was collected in a window from 548 nm to 644 nm using a META detector. PF1 or PR1 were incubated with live cell samples for 5 to 10 min. Addition of H2O2 (10 to 100 μM) to cell samples was performed directly on the microscope stage by bath application to the media.
The family of red-, green-, and blue-fluorescent reagents for the optical detection of H2O2 in living biological samples.

[3] = test system: embryonic rat hippocampal neurons (E18); assay: Fluorescence imaging of H2O2 in primary hippocampal neurons; type: cell-based
Experimental: Hippocampal primary cultures were prepared from embryonic day 18 (E18) rat embryos according to a previously reported protocol. Briefly, hippocampi were dissociated by treatment with trypsin for 20 min at 37° C. followed by washing. The neuronal cells were plated on glass coverslips (Carolina Biological, Burlington, N.C.) coated with poly-L-lysine (50 μg/ml, Sigma) and cultured in neurobasal medium supplemented with 2 mM Glutamax and 2% B-27 (Invitrogen). After 10 days in vitro, the cultures were washed with PBS, incubated with the probe in PBS, and imaged.
Finally, the successful use of the Peroxysensor probes for monitoring changes in intracellular H2O2 concentrations in mammalian cell lines using either confocal or two-photon microscopy led us to evaluate their utility in primary culture systems. […] Control neurons without PF1 and/or H2O2 treatment show no detectable fluorescence enhancements. These experiments confirm that PF1 can be used in living neurons to detect oxidative stress events.

[4] = Spectroscopic properties under simulated physiological conditions; type: physicochemical; conditions: 20 mM HEPES buffer; for fluorescence of unreacted probe: pH 7, before H2O2
Experimental: as §2
(§3) The Peroxysensor reagents were evaluated under simulated physiological conditions (20 mM HEPES buffer, pH 7). […] FIG. 4, FIG. 5 and FIG. 6 show the fluorescence responses of PF1, PR1, and PX1, respectively, to H2O2.

[5] = comparison probe; cited from earlier work
[6] = Fluorescence response of the Peroxysensor probes to H2O2 in buffer; conditions: 20 mM HEPES buffer, pH 7; H2O2 addition
Experimental: as §2, §3

[7] = test system: HEK cells; assay: Two-photon fluorescence imaging of H2O2 in live HEK cells; type: cell-based
Experimental: Two-photon excitation was provided at 704 nm, and emission was collected in a window from 420 to 500 nm. Scale bar=18 μm
Two-photon fluorescence imaging of PX1 was carried out using an inverted Zeiss LSM510 Axiovert 200M microscope with a NeoFLUAR 40x/1.3 NA oil-immersion objective lens. Samples were excited by 704-nm pulses from a mode-locked Ti:Sapphire laser (Tsunami, SpectraPhysics, 120-150 fs pulse width, 80 MHz repetition rate). The emission light was filtered with a 80-nm wide bandpass filter centered at 460 nm (460BP40, Chroma) and detected with the non-descanned detector (NDD) of the LSM510.
Alternative methods were explored for applying the blue-fluorescent PX1 reporter toward intracellular H2O2 detection, reasoning that its short ultraviolet excitation maximum (˜350 nm) would promote interfering absorbance, scattering, and background autofluorescence from native cellular species. […] Whereas one-photon fluorescence microscopy uses a single photon to excite a fluorophore into its excited state, two-photon fluorescence microscopy uses two photons of lower energy light to generate a fluorophore excited state. […] Control cells without probe give the same fluorescence response, establishing that the observed background signal is from endogenous cellular species.

Compound	higher response for H2O2 over .OH ([1]; 100 μM ROS)	higher response for H2O2 over .OtBu ([1]; 100 μM ROS)	cell viability during imaging [2]	intracellular background fluorescence of the unreacted probe [2]	intracellular fluorescence change upon addition of H2O2 [2]	fluorescence of unreacted probe [4]	higher response for H2O2 over NO ([1]; 100 μM ROS)	also measured
CC1(C)OB(c2ccc3c(c2)Oc2cc(B4OC(C)(C)C(C)(C)O4)ccc2C32OC(=O)c3ccccc32)OC1(C)C [PF1, 3′,6′-Bis(pinacolatoboron)fluoran]	> 3 fold	> 15 fold	cells are viable throughout the imaging experiments	negligible intracellular background fluorescence	prompt increases in intracellular green fluorescence	non-fluorescent		background fluorescence of the unreacted probe ([3]; 10 μM probe, 5 min at 25° C.): negligible background fluorescence; intracellular fluorescence change under simulated oxidative stress ([3]; 300 μM H2O2 for 30 min at 25° C.): notable increases in intracellular fluorescence
O=C(O)c1ccccc1C1c2cc(Cl)c(O)cc2Oc2cc(O)c(Cl)cc21 [DCFH, 2′,7′-dichlorodihydrofluorescein]								fluorescence increase by reaction with .OH or peroxynitrite (ONOO−) [5]: ca. 7000 fold; fluorescence increase upon addition of H2O2 [5]: 190 fold; fluorescence increase upon light-induced autoxidation [5]: 2000 fold; fluorescence increase with NO [5]: 150 fold; fluorescence increase with O2− [5]: 67 fold
CC1(C)OB(c2ccc3c(=O)c4ccc(B5OC(C)(C)C(C)(C)O5)cc4oc3c2)OC1(C)C [PX1, 3,6-Bis(pinacolatoboron)xanthone]						weak fluorescence	ca. 6 fold	increase in integrated fluorescence intensity (dynamic range) upon reaction with H2O2 [6]: 52 fold; higher response for H2O2 over tert-butyl hydroperoxide (TBHP) ([1]; 100 μM ROS): > 100 fold; intracellular background fluorescence of the unreacted probe ([7]; live HEK cells, 10 μM probe, 2-3 min at 25° C., two-photon excitation 704 nm): minimal intracellular background fluorescence; intracellular fluorescence change upon addition of H2O2 ([7]; probe-stained HEK cells, 100 μM H2O2, two-photon excitation 704 nm): Prompt increases in intracellular blue fluorescence; emission maximum of unreacted probe ([4]; pH 7): 400 nm; ultraviolet absorption maximum ([4]; pH 7): 350 nm; extinction coefficient ε at absorption maximum ([4]; pH 7, 350 nm): 4700 M⁻¹ cm⁻¹
CC1(C)OB(c2ccc3c(c2)Oc2cc(B4OC(C)(C)C(C)(C)O4)ccc2N3)OC1(C)C [PR1, 3,7-Bis(pinacolatoboron)phenoxazine]	> 200 fold	> 200 fold	cells are viable throughout the experiments	virtually no background fluorescence	Striking increases in intracellular red fluorescence	non-fluorescent	> 200 fold	higher response for H2O2 over O2− ([1]; 10 mM O2−, 100 μM H2O2): > 1000 fold
